According to patent publication US20260053767A1, “Hepatoprotective Compositions And Methods” (Jemyll, Ltd., priority 2022, published 2026):

Legend:
[1] = tested on: primary human hepatocytes; test: In vitro citrate uptake; type: cell-based; settings: citrate 150 μM; for citrate uptake: vs untreated cells
Procedure: Isolation of human primary hepatocytes: Tissue obtained during percutaneous liver biopsy, was diced (<3 mm) and washed in HBSS to remove excess blood. Tissue was then transferred to a tube containing pre-warmed EGTA buffer (HBSS, 0.5 mM EGTA, 0.5% fatty acid free bovine serum albumin (BSA)) and agitated (100 rpm) in a water bath with shaking bed for 10 min, 37° C. After three washes, to remove the remaining blood and EGTA, the tissue was placed in pre-warmed digestion buffer (HBSS, 0.05% collagenase IV, 0.5% fatty acid free BSA, 10 mM CaC12) and agitated (100 rpm) in a water bath with shaking bed for 30 min, 37° C. The digested tissue was filtered through 100 μm cell strainer while the remaining tissue was again digested in fresh digestion buffer (20). Cell suspensions were pooled and centrifuged at 80 g for 5 min, 4° C. and the supernatant discarded. Cells were grown until confluent and used for citrate uptake analysis.
In vitro Citrate Uptake: Primary human hepatocytes were incubated with or without Dodecanedioic acid, sodium salt (0.1-0.25-0.5-1-1.5% w/vol) for 30 minutes. Following the incubation step, citrate was added at a final concentration of 150 μM for 40 minutes. At the end of the stimulation citrate uptake was assessed by a commercial Citrate Assay Kit and data analyzed with Varioskan LUX multimode microplate reader.

cancer bearing mice = test: Administration of DDDA to cancer bearing mice; settings: mouse, in vivo
Excerpt: Thus, DDDA in low doses (5 g or less, or 4 g or less, or 3 g, or less, or 2 g or less, or 1 g or less) may be used for chemoprevention of HCC in healthy liver or livers of NASH/NAFLD individuals, presumably due to reduction of chronic subacute inflammation.

SIRT1 = SIRT1 levels in liver cells; type: cell-based; settings: AML-12 liver cells, 6 hours; p=0.127
Excerpt: (§1) To that end, the inventors used endothelial cells (EOMA cells) and liver cells (AML-12 cells) in vitro and quantified various markers in response to exposure of the cells to environmental challenge in the presence and absence of DDA at low concentrations. Unless indicated otherwise, the DDA concentration in the in vitro experiments was 5 mcg per microliter. More specifically, the inventors measured p-H2AX protein levels as a marker for DNA damage, PGC-1α protein levels as a marker for mitochondrial biogenesis, NAMPT enzyme levels as a marker for potential for NAD+ production, and total antioxidant capacity as a marker of cellular health. In addition, the inventors also measured global SIRT activity as a gauge of activity for all SIRT enzymes, and in particular SIRT1 enzyme levels as markers for autophagy and various beneficial processes associated with a caloric restricted diet, and SIRT3 levels as markers for mitochondrial function and longevity.
In still further experiments, the inventors also investigated whether or not DDDA could have stimulatory effects on selected SIRT proteins. More specifically, the inventors tested the effects of DDDA on SIRT3 and SIRT1, and exemplary results are shown in FIG. 9 and FIG. 10, respectively. […] N=5-6 plates per treatment. […] Beyond this trend, however, no other observations were evident. N=5-6 plates per treatment.

PGC-1α = PGC-1α in endothelial cells; type: cell-based; settings: EOMA endothelial cells
Excerpt: as §1
In yet a further series of experiments, the inventors also sought to confirm whether or not DDDA would have a modulatory effect in endothelial cells using the same markers and experimental conditions as noted above.
On the other hand, where endothelial cells were exposed to DDDA, there was a significant difference in NAMPT enzyme levels as is exemplarily depicted in FIG. 15.

O=C(O)CCCCCCCCCCC(=O)O [DDDA, dodecanedioic acid]
citrate uptake ([1]; C12 1% (v/w)): significant decrease
citrate uptake ([1]; C12 1.5% (v/w)): significant decrease
citrate uptake (figure legend) ([1]; C12 0.1-1.5% v/w): inhibits citrate uptake
effect in cancer bearing mice (cancer bearing mice): helpful for liver blastomas and potentially NASH associated carcinomas
SIRT1 levels (SIRT1): trended upwards
PGC-1α (PGC-1α): did not show a statistically significant difference
